Experimental data: patent publication US10123985B2, “Therapeutic strategies for treating mitochondrial disorders” (Whitehead Institute for Biomedical Research, priority 2015, dated 2018)
“Also recorded” adds a separate entry of the source.

What was measured:
[1] = test system: 143B CytB cells; experiment: Cell cycle distribution by propidium iodide flow cytometry; format: cell-based; conditions: 143B CytB cells without AKB compared with AKB, 78 hours
Method: 143B CytB cells were incubated in untreated media or media containing AKB or 100 μM adenine for 78 hours before being washed with PBS, trypsinized, pelleted, and resuspended in 500 μL PBS. Cells were fixed by adding 4.5 mL 70% ethanol and incubated at 4° C. overnight. The following day cells were pelleted and resuspended in 1 mL PBS+0.1% (v/v) Triton X-100. RNase A and then propidium iodide (PI) were added to 0.2 mg/mL and 20 μg/mL, respectively. Samples were incubated at 37° C. for 15 minutes and filtered into a flow cytometry tube. DNA content was measured by flow cytometry (BD FACS Canto II) and analyzed (FACS Diva Software).

[2] = test system: lactate dehydrogenase (LDH); experiment: Lactate dehydrogenase assay (disappearance of NADH absorbance); format: biochemical; conditions: 1 mM α-ketobutyrate, 180 μM NADH, absorbance at 340 nm
Method: Immediately prior to the start of the assay 100 μL of a reaction buffer containing 50 mM HEPES-KOH pH 7.5, 20 mM KCl, 2 mM MgCl2, 1 mM DTT, 180 μM NADH, 1 mM α-ketobutyrate (where applicable) was combined with LDH (where applicable) in 96-well plates. Lactate dehydrogenase activity was assayed by monitoring disappearance of NADH absorbance at 340 nm over time.

[3] = test system: Jurkat cells; experiment: NAD+ and NADH measurements in Jurkat cells; format: cell-based, human; conditions: wild type Jurkat cells, phenformin (10 μM), aspartate (10 mM)
Method: Measurement of NAD^+/NADH was done by modification of manufacturer instructions for NAD^+/NADH Glo Assay (Promega). Jurkat cells were incubated in RPMI under the conditions listed for 8 hours before cell extracts were taken. To extract NAD^+/NADH, cells were centrifuged for 1 minute at 300×g, and washed 3 times by quickly resuspending in 15 mL PBS and centrifuging for 1 minute at 300×g. Pelleted samples were extracted in 100 μL ice cold lysis buffer (1% Dodecyltrimethylammonium bromide (DTAB) in 0.2 N NaOH diluted 1:1 with PBS) and frozen at −80° C. To measure NADH, 20 μL of extracts were heated to 75° C. for 30 min in the basic lysis buffer to degrade NAD^+. To measure NAD^+, samples were diluted 1:1 with 0.4 N HCl and incubated at 60° C. for 15 min where acidic conditions will degrade NADH. Following incubations, samples were quenched by adding 20 μL of 0.25 M Tris, 0.2 N HCl (NADH) or 20 μL of 0.5 M Tris base (NAD^+). Manufacturer instructions were then followed to measure NAD^+/NADH.

SMILES | Cell cycle distribution (DNA content) [1] | Regeneration of NAD+ from NADH by LDH [2] | NAD+/NADH ratio in cells with ETC inhibition [3]
CCC(=O)C(=O)O [AKB, α-ketobutyrate] | do not obviously arrest at a specific stage of the cell cycle | capable of regenerating NAD^+ from NADH | –
N[C@@H](CC(=O)O)C(=O)O [aspartate] | – | – | did not restore the NAD/NADH ratio in cells with ETC inhibition; also recorded: does not increase the NAD^+/NADH ratio in cells with ETC inhibition
